Source: patent publication US12077503B2, “Substituted cyclic amides and their use as herbicides” (FMC CORPORATION, priority 2015, dated 2024)

Legend:
Format in all cases: in vivo
[1] = test system: giant foxtail (Setaria faberii); assay: Test A preemergence; settings: Setaria faberi, pre-emergence, 240 h, 0 to 100 scale where 0 is no effect and 100 is complete control, read-out: Foxtail, Giant plant response rating; for pest or weed control at 31 g/ha: 31 g ai/ha, Preemergence; for pest or weed control at 125 g/ha: 125 g ai/ha, preemergence, approx. 10 d
Procedure, shortened: (§1)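 In a loam soil and sand blend, planted seeds got a preemergence directed soil spray, and young plants at the one- to two-leaf stage, 2–10 cm high, got a postemergence application; ~10 d greenhouse hold; injury rated visually, 0 = none, 100 = complete control.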

[2] = test system: ragweed (common ragweed, Ambrosia elatior); assay: Test A preemergence; settings: Ambrosia artemisiifolia, pre-emergence, 240 h, 0 to 100 scale where 0 is no effect and 100 is complete control, read-out: Ragweed plant response rating; for pest or weed control at 31 g/ha: 31 g ai/ha, Preemergence; for pest or weed control at 125 g/ha: 125 g ai/ha, preemergence, approx. 10 d
Procedure, shortened: as §1

[3] = test system: pigweed (Amaranthus retroflexus); assay: Test A preemergence; settings: Amaranthus retroflexus, pre-emergence, 240 h, 0 to 100 scale where 0 is no effect and 100 is complete control, read-out: Pigweed plant response rating; for pest or weed control at 31 g/ha: 31 g ai/ha, Preemergence; for pest or weed control at 125 g/ha: 125 g ai/ha, preemergence, approx. 10 d
[4] = test system: ryegrass, Italian (Italian ryegrass, Lolium multiflorum); assay: Test A preemergence; settings: Lolium multiflorum, pre-emergence, 240 h, 0 to 100 scale where 0 is no effect and 100 is complete control, read-out: Ryegrass, Italian plant response rating; for pest or weed control at 31 g/ha: 31 g ai/ha, Preemergence; for pest or weed control at 125 g/ha: 125 g ai/ha, preemergence, approx. 10 d
Procedure, shortened: as §1

[5] = test system: barnyardgrass (Echinochloa crus-galli); assay: Test A preemergence; settings: Echinochloa crus-galli, pre-emergence, 240 h, 0 to 100 scale where 0 is no effect and 100 is complete control, read-out: Barnyardgrass plant response rating; for pest or weed control at 31 g/ha: 31 g ai/ha, Preemergence; for pest or weed control at 125 g/ha: 125 g ai/ha, preemergence, approx. 10 d
Procedure, shortened: as §1

Kochia (Kochia scoparia) [6] = assay: Test A preemergence; settings: Bassia scoparia, pre-emergence, 240 h, 0 to 100 scale where 0 is no effect and 100 is complete control, read-out: Kochia plant response rating; for pest or weed control at 31 g/ha: 31 g ai/ha, Preemergence; for pest or weed control at 125 g/ha: 125 g ai/ha, preemergence, approx. 10 d
Procedure, shortened: as §1

[7] = test system: barnyardgrass (Echinochloa crus-galli); assay: Test B flooded paddy test; settings: Echinochloa crus-galli, 250 g ai/ha, Flood; 0 to 100 scale where 0 is no effect and 100 is complete control; read-out: Barnyardgrass plant response rating
Procedure, shortened: (§2)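 Flooding to 3 cm over soil accompanied treatment, which consisted of adding compound to the standing water around 2-leaf plants; depth was then maintained. Visual assessment versus controls followed at 13 to 15 d (scale 0–100, 0 meaning no effect).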

[8] = test system: ducksalad (Heteranthera limosa); assay: Test B flooded paddy test; settings: Heteranthera limosa, 250 g ai/ha, Flood; 0 to 100 scale where 0 is no effect and 100 is complete control; read-out: Ducksalad plant response rating
Procedure, shortened: as §2

[9] = test system: sedge, umbrella (small-flower umbrella sedge, Cyperus difformis); assay: Test B flooded paddy test; settings: Cyperus difformis, 250 g ai/ha, Flood; 0 to 100 scale where 0 is no effect and 100 is complete control; read-out: Sedge, Umbrella plant response rating
Procedure, shortened: as §2

rice (Oryra sativa) = assay: Test B flooded paddy test; settings: Oryza sativa, 250 g ai/ha, Flood; 0 to 100 scale where 0 is no effect and 100 is complete control; read-out: Rice plant response rating
Procedure, shortened: as §2

[10] = test system: wheat (Triticum aestivum); assay: Test A postemergence; settings: Triticum aestivum, post-emergence, 240 h; for plant injury at 125 g/ha: 125 g ai/ha, postemergence, visual injury on 0 to 100 scale (0 no effect, 100 complete control), approx. 10 d, read-out: Wheat plant response rating; for plant injury at 31 g/ha: Postemergence, 31 g ai/ha, visual injury after approx. 10 d, 0 to 100 scale, 0 no effect, 100 complete control, read-out: Plant response rating, Wheat
Procedure, shortened: as §1

corn (Zea mays) = assay: Test A postemergence; settings: Zea mays, post-emergence, 240 h; for plant injury at 125 g/ha: 125 g ai/ha, postemergence, visual injury on 0 to 100 scale (0 no effect, 100 complete control), approx. 10 d, read-out: Corn plant response rating; for Corn plant response rating (crop injury, 0 = no effect, 100 = complete kill) at 31 g/ha: Postemergence, 31 g ai/ha, visual injury after approx. 10 d, 0 to 100 scale, 100 complete control
Procedure, shortened: as §1

[11] = test system: giant foxtail (Setaria faberii); assay: Test A postemergence; settings: Setaria faberi, post-emergence, 240 h; for pest or weed control at 125 g/ha: 125 g ai/ha, postemergence, visual injury on 0 to 100 scale (0 no effect, 100 complete control), approx. 10 d, read-out: Foxtail, Giant plant response rating; for pest or weed control at 31 g/ha: Postemergence, 31 g ai/ha, visual injury after approx. 10 d, 0 to 100 scale, 0 no effect, 100 complete control, read-out: Plant response rating, Foxtail, Giant
Procedure, shortened: as §1

[12] = test system: ragweed (common ragweed, Ambrosia elatior); assay: Test A postemergence; settings: Ambrosia artemisiifolia, post-emergence, 240 h; for pest or weed control at 125 g/ha: 125 g ai/ha, postemergence, visual injury on 0 to 100 scale (0 no effect, 100 complete control), approx. 10 d, read-out: Ragweed plant response rating; for pest or weed control at 31 g/ha: Postemergence, 31 g ai/ha, visual injury after approx. 10 d, 0 to 100 scale, 0 no effect, 100 complete control, read-out: Plant response rating, Ragweed
Procedure, shortened: as §1

[13] = test system: pigweed (Amaranthus retroflexus); assay: Test A postemergence; settings: Amaranthus retroflexus, post-emergence, 240 h; for pest or weed control at 125 g/ha: 125 g ai/ha, postemergence, visual injury on 0 to 100 scale (0 no effect, 100 complete control), approx. 10 d, read-out: Pigweed plant response rating; for pest or weed control at 31 g/ha: Postemergence, 31 g ai/ha, visual injury after approx. 10 d, 0 to 100 scale, 0 no effect, 100 complete control, read-out: Plant response rating, Pigweed
Procedure, shortened: as §1

[14] = test system: ryegrass, Italian (Italian ryegrass, Lolium multiflorum); assay: Test A postemergence; settings: Lolium multiflorum, post-emergence, 240 h; for pest or weed control at 125 g/ha: 125 g ai/ha, postemergence, visual injury on 0 to 100 scale (0 no effect, 100 complete control), approx. 10 d, read-out: Ryegrass, Italian plant response rating; for pest or weed control at 31 g/ha: Postemergence, 31 g ai/ha, visual injury after approx. 10 d, 0 to 100 scale, 0 no effect, 100 complete control, read-out: Plant response rating, Ryegrass, Italian
Procedure, shortened: as §1

[15] = test system: barnyardgrass (Echinochloa crus-galli); assay: Test A postemergence; settings: Echinochloa crus-galli, post-emergence, 240 h; for pest or weed control at 125 g/ha: 125 g ai/ha, postemergence, visual injury on 0 to 100 scale (0 no effect, 100 complete control), approx. 10 d, read-out: Barnyardgrass plant response rating; for pest or weed control at 31 g/ha: Postemergence, 31 g ai/ha, visual injury after approx. 10 d, 0 to 100 scale, 0 no effect, 100 complete control, read-out: Plant response rating, Barnyardgrass
Procedure, shortened: as §1

[16] = test system: blackgrass (Alopecurus myosuroides); assay: Test A postemergence; settings: Alopecurus myosuroides, post-emergence, 240 h; for pest or weed control at 125 g/ha: 125 g ai/ha, postemergence, visual injury on 0 to 100 scale (0 no effect, 100 complete control), approx. 10 d, read-out: Blackgrass plant response rating; for pest or weed control at 31 g/ha: Postemergence, 31 g ai/ha, visual injury after approx. 10 d, 0 to 100 scale, 0 no effect, 100 complete control, read-out: Plant response rating, Blackgrass
Procedure, shortened: as §1

Kochia (Kochia scoparia) [17] = assay: Test A postemergence; settings: Bassia scoparia, post-emergence, 240 h; for pest or weed control at 125 g/ha: 125 g ai/ha, postemergence, visual injury on 0 to 100 scale (0 no effect, 100 complete control), approx. 10 d, read-out: Kochia plant response rating; for pest or weed control at 31 g/ha: Postemergence, 31 g ai/ha, visual injury after approx. 10 d, 0 to 100 scale, 0 no effect, 100 complete control, read-out: Plant response rating, Kochia
Procedure, shortened: as §1

SMILES: CN1C[C@H](c2cc(C(F)F)cs2)[C@@H](C(=O)Nc2cccc(C#N)c2F)C1=O [Compound 1093]
- pest or weed control at 31 g/ha [1]: 100%
- pest or weed control at 125 g/ha [1]: 100%
- pest or weed control at 31 g/ha [2]: 0%
- pest or weed control at 125 g/ha [2]: 20%
- pest or weed control at 31 g/ha [3]: 0%
- pest or weed control at 125 g/ha [3]: 80%
- pest or weed control at 31 g/ha [4]: 0%
- pest or weed control at 125 g/ha [4]: 0%
- pest or weed control at 31 g/ha [5]: 40%
- pest or weed control at 125 g/ha [5]: 90%
- pest or weed control at 31 g/ha (Kochia (Kochia scoparia) [6]): 0%
- pest or weed control at 125 g/ha (Kochia (Kochia scoparia) [6]): 50%
- pest or weed control at 250 g/ha [7]: 60%
- pest or weed control at 250 g/ha [8]: 80%
- pest or weed control at 250 g/ha [9]: 0%
- pest or weed control at 250 g/ha (rice (Oryra sativa)): 0%
- plant injury at 125 g/ha [10]: 0%
- plant injury at 31 g/ha [10]: 0%
- plant injury at 125 g/ha (corn (Zea mays)): 0%
- Corn plant response rating (crop injury, 0 = no effect, 100 = complete kill) at 31 g/ha (corn (Zea mays)): 0%
- pest or weed control at 125 g/ha [11]: 90%
- pest or weed control at 31 g/ha [11]: 30%
- pest or weed control at 125 g/ha [12]: 30%
- pest or weed control at 31 g/ha [12]: 0%
- pest or weed control at 125 g/ha [13]: 20%
- pest or weed control at 31 g/ha [13]: 0%
- pest or weed control at 125 g/ha [14]: 0%
- pest or weed control at 31 g/ha [14]: 0%
- pest or weed control at 125 g/ha [15]: 80%
- pest or weed control at 31 g/ha [15]: 40%
- pest or weed control at 125 g/ha [16]: 0%
- pest or weed control at 31 g/ha [16]: 0%
- pest or weed control at 125 g/ha (Kochia (Kochia scoparia) [17]): 20%
- pest or weed control at 31 g/ha (Kochia (Kochia scoparia) [17]): 0%

SMILES: CSc1ccccc1NC(=O)[C@H]1C(=O)N(C)C[C@@H]1c1ccc(F)c(OC(C)C)c1 [Compound 1076]
- pest or weed control at 31 g/ha [1]: 80%
- pest or weed control at 125 g/ha [1]: 100%
- pest or weed control at 31 g/ha [2]: 10%
- pest or weed control at 125 g/ha [2]: 0%
- pest or weed control at 31 g/ha [3]: 0%
- pest or weed control at 125 g/ha [3]: 20%
- pest or weed control at 31 g/ha [4]: 0%
- pest or weed control at 125 g/ha [4]: 0%
- pest or weed control at 31 g/ha [5]: 0%
- pest or weed control at 125 g/ha [5]: 90%
- pest or weed control at 31 g/ha (Kochia (Kochia scoparia) [6]): 0%
- pest or weed control at 125 g/ha (Kochia (Kochia scoparia) [6]): 0%
- pest or weed control at 250 g/ha [7]: 20%
- pest or weed control at 250 g/ha [8]: 90%
- pest or weed control at 250 g/ha [9]: 0%
- pest or weed control at 250 g/ha (rice (Oryra sativa)): 40%
- plant injury at 125 g/ha [10]: 0%
- plant injury at 31 g/ha [10]: 0%
- plant injury at 125 g/ha (corn (Zea mays)): 0%
- Corn plant response rating (crop injury, 0 = no effect, 100 = complete kill) at 31 g/ha (corn (Zea mays)): 0%
- pest or weed control at 125 g/ha [11]: 50%
- pest or weed control at 31 g/ha [11]: 0%
- pest or weed control at 125 g/ha [12]: 0%
- pest or weed control at 31 g/ha [12]: 0%
- pest or weed control at 125 g/ha [13]: 0%
- pest or weed control at 31 g/ha [13]: 0%
- pest or weed control at 125 g/ha [14]: 0%
- pest or weed control at 31 g/ha [14]: 0%
- pest or weed control at 125 g/ha [15]: 50%
- pest or weed control at 31 g/ha [15]: 0%
- pest or weed control at 125 g/ha [16]: 20%
- pest or weed control at 31 g/ha [16]: 0%
- pest or weed control at 125 g/ha (Kochia (Kochia scoparia) [17]): 0%
- pest or weed control at 31 g/ha (Kochia (Kochia scoparia) [17]): 0%
